Molecules are shown by their SMILES. pIC50: −log10 of the molar value.

By pIC50 is commonly meant the IC50 on a negative log10 scale, so that one unit is a factor of ten.

Experiment [1] concerns T98G-F cells. Description: 2D proliferation assay with SELPi (IncuCyte). The following applies: 0.5 μM SELPi. It counts as cell-based, human. The method, then: (§1) For growth curve evaluation, U-87MG and T98G human GB cells dormant and fast-growing tumor cells (29) (25,000 cells/well) were seeded onto 24-well plates in complete DMEM and incubated for 72 h (37° C.; 5% CO2). For the comparison of […] cell types growth curves in 2D culture, 10,000 cells/well were cultured in DMEM following a daily incubation with PrestoBlue® reagent for 4 h. For proliferation evaluation in the presence of SELPi, U-87MG and T98G human GB cells generating dormant and fast-growing tumors, or PD-GB4 cells (25,000 cells/well) were plated onto 24-well plate in complete DMEM and incubated for 24 h (37° C.; 5% CO2) to allow cell attachment. Cells were then treated with either 0.5 μM SELPi or with DMSO vehicle at corresponding % v/v of 0.2% v/v, prepared in medium mixture at 1:1:1:1:1 ratio of DMEM, astrocytes medium, microglia medium, pericytes medium and Endo-Gro medium, for 30 min. All wells were washed twice with PBS and incubated further with fresh medium mixture. Cell proliferation was monitored by IncuCyte® Zoom Live cell analysis system (Essen Bioscience), while the first images were taken right before the treatment. Each group was assayed in triplicates and the experiment was repeated in three independent times. Proliferation of cells was normalized to time 0 and presented as percent (%) of cell confluence.

Experiment [2] has as its system PD-GB4 cells. Description: 2D proliferation assay with SELPi (IncuCyte). Type of experiment: cell-based, human. The note with it: 0.5 μM SELPi. How it is done: as §1
Experiment [3] concerns U-87MG-F cells. Description: 2D proliferation assay with SELPi (IncuCyte). It counts as cell-based, human. The note with it: 0.5 μM SELPi. How it is done:
as §1

In experiment [4] the test system is T98G-F cells. Description: Proliferation in fibrin 3D-bio-ink in the presence of SELPi (ImageJ, RLU). Type of experiment: cell-based, human. The following applies: 0.5 M [sic] KF38789, fibrin 3D-bio-ink; p=0.00003. The method, then: (§2) PD-GB4 iRFP-labeled were casted into 96 glass bottom well plates (Cellvis, California, USA) in a core tumor at a density of 1×10^7 cells/ml and surrounded with 1×10^6 cells/ml un-labeled hAstro. Experiments were done in a medium mixture at 1:1:1 ratio of DMEM, astrocytes medium and microglia medium. For invasion estimation of dormant versus fast-growing cell types, mCherry-labeled U-87MG and T98-G human GB cells (2×10^6 cells/ml) were plated in a glass bottom 96-well plates in the core of fibrin 3D-bio-ink. The surrounding fibrin 3D-bio-ink was an empty, clear fibrin 3D-bio-ink. Experiments were done in a medium mixture at 1:1:1:1:1 ratio of DMEM, astrocytes medium, microglia medium, pericytes medium and Endo-Gro medium. Cell invasion was monitored for 2-5 weeks using EVOS FL Auto cell imaging system and quantified by ImageJ software, presented here as relative light units (RLU). Cells invasion was normalized by comparing the size of the cell core at day 1 (polygon drawing shape) up to day 14. 2 weeks. Each group contained 6-12 samples and the experiments were repeated in three independent times. For the evaluation of proliferation in the presence of P-selectin inhibitor (SELPi), mCherry-labeled U-87MG-F and T98G-F cells generating fast-growing tumors or iRFP-labeled PD-GB4 cells (4×10^6 cells/ml) were seeded in a glass bottom 96-well plate in the core of fibrin 3D-bio-ink. The surrounding fibrin 3D-bio-ink was an empty, clear fibrin 3D-bio-ink. Cells were then treated with […] KF38789 which is a selective inhibitor of P-selectin (SELPi) which were chosen to serve as a small molecule drug. […] P-selectin (SELP) functions as a cell adhesion molecule on the surfaces of cells which binds carbohydrates (18). It is also involved in tumor cell binding and promote their invasion by supporting a permissive metastatic microenvironment and SELP is highly expressed in GB (28). […] Proliferation was quantified during time with ImageJ software by RLU. […]

The subject of experiment [5] is PD-GB4 cells. The experiment is described as above. It counts as cell-based, human. The note with it: 0.5 M [sic] KF38789, fibrin 3D-bio-ink; p=0.0001. The method, then:
as §2

In experiment [6] the test system is U-87MG-F cells. The description is as above. Type of experiment: cell-based, human. The following applies: 0.5 M [sic] KF38789, fibrin 3D-bio-ink; p=4×10^−6. The method, then:
as §2

Experiment [7] addresses T1, P-selectin (SELP) (Homo sapiens, UniProt P16109).
T1 sequence (P16109 42-830): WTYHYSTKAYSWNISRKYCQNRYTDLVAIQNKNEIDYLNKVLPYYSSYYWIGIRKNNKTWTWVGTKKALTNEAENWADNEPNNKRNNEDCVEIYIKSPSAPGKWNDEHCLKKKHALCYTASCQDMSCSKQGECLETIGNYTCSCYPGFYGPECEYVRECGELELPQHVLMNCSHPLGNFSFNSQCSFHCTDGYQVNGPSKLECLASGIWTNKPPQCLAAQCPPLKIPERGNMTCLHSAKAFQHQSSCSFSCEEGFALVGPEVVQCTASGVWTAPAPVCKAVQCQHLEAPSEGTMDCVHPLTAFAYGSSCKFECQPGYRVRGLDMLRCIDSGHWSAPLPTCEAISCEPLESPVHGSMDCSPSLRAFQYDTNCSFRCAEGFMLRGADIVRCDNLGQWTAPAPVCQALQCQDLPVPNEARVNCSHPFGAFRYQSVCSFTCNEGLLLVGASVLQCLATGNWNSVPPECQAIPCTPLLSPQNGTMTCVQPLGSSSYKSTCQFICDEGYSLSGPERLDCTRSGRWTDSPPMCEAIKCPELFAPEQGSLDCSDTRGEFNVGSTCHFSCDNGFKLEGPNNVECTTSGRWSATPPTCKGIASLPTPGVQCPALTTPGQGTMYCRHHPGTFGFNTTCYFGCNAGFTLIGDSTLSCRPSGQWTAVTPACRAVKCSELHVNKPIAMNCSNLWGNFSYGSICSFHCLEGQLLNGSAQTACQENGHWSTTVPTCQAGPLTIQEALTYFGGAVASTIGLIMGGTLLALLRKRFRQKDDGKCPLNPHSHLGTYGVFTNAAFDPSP
The following applies: lymphocytes; read-out: IC50 for inhibition of SELP binding in lymphocytes; cited from earlier work.

The test system of experiment [8] is patient-derived GB cells. Description: TMZ resistance evaluation, patient-derived GB cells in 2D culture. The following applies: Homo sapiens, 72 h, 3 patient-derived GB cells, 3 days, all three cell types, read-out: IC50 of TMZ, patient-derived cells grown in 2D culture. It counts as cell-based. How it is done: The resistance of patient-derived cells to TMZ (LIXIN, China) was assessed in fibrin 3D-bio-ink and in 2D culture. Patient-derived cells were seeded in fibrin 3D-bio-ink at 1×10^7 cells/ml density to match resemble a very dens GB tissue, in different TMZ concentrations (2000 μM -0.01 μM) for 7 days. For the 2D culture TMZ resistance evaluation 20,000-40,000 cells/well were seeded in 24 well plate in fresh DMEM. We replaced the media to media with different TMZ concentrations (10 μM -0.01 μM) for 3 days. Then, the 3D-bio-ink samples were placed in 500 μl PrestoBlue in 24 well plate and incubated at 37° C. for 3 h.

On to `COc1ccc(C2CC(c3c(O)cc(C)oc3=O)=NCCS2)c(OC)c1` (centres unmarked) [SELPi, KF38789], for which the “Effect on T98G-F cells in 2D culture” value in experiment [1] was “did not affect”. Further, the “Effect on proliferation of PD-GB4 in 2D culture” value in experiment [2] was “did not affect”. Besides, in experiment [3], the “Effect on U-87MG-F cells in 2D culture” value is recorded as “did not affect”. Further, in experiment [4], the “Inhibition of T98G fast-growing cells in fibrin 3D-bio-ink” value was “significant inhibition”. The “Inhibition of PD-GB4 cell proliferation in fibrin 3D-bio-ink” value in experiment [5] was “significant inhibition”. The “Inhibition of U-87MG fast-growing cells in fibrin 3D-bio-ink” value in experiment [6] is listed as “significant inhibition”. In addition, the negative-log IC50 (pIC50) in experiment [7] was 5.70.
For the molecule `Cn1nnc2c(C(N)=O)ncn2c1=O` [TMZ, Temozolomide], the pIC50 in experiment [8] is approximately 8.40.

The values above are taken from US20240167001A1, “THREE-DIMENSIONAL TUMOR MODEL OF GLIOBLASTOMA AND BRAIN METASTASIS, METHODS OF MANUFACTURING SAME AND USES THEREOF” (Ramot at Tel-Aviv University Ltd., priority 2021, published 2024).
